Results published in patent publication US20090093471A1, “Methods of Treating Nervous Disorders” (priority 2005, published 2009).
Like-named read-outs stand apart in the source and are kept apart here.

Experiments:
[1] = test system: Notch-1 (NotchΔE) cleavage; assay: NotchΔE transfection and Notch-1 cleavage assay in Hela cells; details: Hela cells overexpressing NotchΔE, up to 16 hours; DAPT 2 μM
γ-secretase [2] = assay: γ-Secretase assay, de novo Aβ generation from membranes of compound-treated cells; assay type: cell-based; details: cells incubated with compound for 16 hours
Procedure: We implemented a an assay allowing de novo Aβ generation in vitro, using cell membranes as the source of γ-secretase. Preparation of solubilized γ-secretase fractions was performed essentially as described previously (Li, Y. M., Lai, M. T., Xu, M., Huang, Q., DiMuzio-Mower, J., Sardana, M. K., Shi, X. P., Yin, K. C., Shafer, J. A., and Gardell, S. J. (2000) Proc. Natl. Acad. Sci. U.S.A. 97, 6138-6143) with the above modifications. All incubations were performed in the presence of Complete Protease Inhibitor Cocktail. Confluent plates swAPP-HEK293 cells were lysed in 1 ml of ice-cold CelLytic-M (Sigma) and incubated 15 minutes at 4° C. on a shaker. Cell debris and nuclei were removed by centrifugation at 1000×g for 15 min at 4° C. […] Solubilized γ-secretase activity was induced at 37° C. for 2 h with or without the indicated treatments and Aβ 40 generated de novo was quantified by ELISA. […]
To test this hypothesis, we used an established γ-secretase assay allowing de novo Aβ generation in vitro, using cell membranes as the source of γ-secretase. Solubilized γ-secretase fractions are activated in a γ-secretase buffer (see experimental procedures) and activity is monitored following either the cleavage of an internally quenched fluorogenic γ-secretase substrate, or endogenous C99 itself. […] C99 cleavage by γ-secretase was measured by de novo Aβ 40 generation. […]

RhoA = RhoA (Homo sapiens, UniProt P61586); details: Gao et al. 2004; Picard et al., submitted; cited from earlier work
Cdc42 = Cdc42 (Homo sapiens, UniProt P60953); details: Gao et al. 2004; Picard et al., submitted; cited from earlier work
Recombinant Rac2 = Recombinant Rac2 (Homo sapiens, UniProt P15153); assay: biochemical
γ-secretase [3] = assay: γ-Secretase assay, compound added to solubilized γ-secretase preparations; assay type: biochemical
Procedure: We implemented a an assay allowing de novo Aβ generation in vitro, using cell membranes as the source of γ-secretase. Preparation of solubilized γ-secretase fractions was performed essentially as described previously (Li, Y. M., Lai, M. T., Xu, M., Huang, Q., DiMuzio-Mower, J., Sardana, M. K., Shi, X. P., Yin, K. C., Shafer, J. A., and Gardell, S. J. (2000) Proc. Natl. Acad. Sci. U.S.A. 97, 6138-6143) with the above modifications. All incubations were performed in the presence of Complete Protease Inhibitor Cocktail. Confluent plates swAPP-HEK293 cells were lysed in 1 ml of ice-cold CelLytic-M (Sigma) and incubated 15 minutes at 4° C. on a shaker. Cell debris and nuclei were removed by centrifugation at 1000×g for 15 min at 4° C. For membrane isolation, the supernatant solutions were centrifuged at 20,000×g for 1 hour at 4° C. After centrifugation, the ensuing pellets were resuspended in 100 μl activity buffer (150 mM Na Citrate, pH 6.4)/cells plate and were defined as solubilized γ-secretase, as previously shown by Pinnix et al. (2001). Solubilized γ-secretase activity was induced at 37° C. for 2 h with or without the indicated treatments and Aβ 40 generated de novo was quantified by ELISA. Control experiments used the internally quenched fluorogenic γ-secretase substrate NMA-[…](DNP)-DRDRDR-NH2 (λex=355 nm; λem=440 nm) from Calbiochem, which contains the C-terminal β-APP amino acid sequence that is cleaved by γ-secretase and the γ-secretase inhibitor N—[N-(3,5-Difluorophenacetyl-L-alanyl)]-S-phenylglycine t-Butyl Ester (DAPT, Calbiochem).
To test this hypothesis, we used an established γ-secretase assay allowing de novo Aβ generation in vitro, using cell membranes as the source of γ-secretase. Solubilized γ-secretase fractions are activated in a γ-secretase buffer (see experimental procedures) and activity is monitored following either the cleavage of an internally quenched fluorogenic γ-secretase substrate, or endogenous C99 itself. The well characterized cell permeable γ-secretase inhibitor DAPT (Lanzn, T. A., Himesn, C. S., Pallanten, G., Adamsn, L., Yamazakin, S., Amoren, B., and Merchantn, K. M. (2003) J. Pharmacol. Exp. Ther. 305, 864-871) is included as control. C99 cleavage by γ-secretase was measured by de novo Aβ 40 generation. De novo Aβ 40 production increased with time and was optimal at 37° C. (FIG. 4 B). […] When temperature decreased, Aβ 40 generation decreased in parallel and was abolished at 4° C., in accordance with an enzymatic processing. […] (data not shown).

[4] = rat, in vivo
[5] = test system: Aβ 40 production in SH-SY5Y cells; details: for reduction in secreted Aβ 40 levels: 18 h
Procedure: Cells were treated 48 hours after plating in 10 cm plates with various concentrations of the indicated molecules, or DMSO as the vehicle for 16 hours. To do so, medium was replaced with 5 ml of new medium in which treatments were performed. Total DMSO dilution was 1/1000 in all cases. Cells were allowed to secrete in 5 ml medium for 7 hours in the presence of 1 μM phosphoramidon.
Stably transfected swAPP-HEK293 cells were incubated for 7 hours in the presence of phosphoramidon (1 μM) (Sigma). Media and cell lysates were collected as above, centrifuged, normalized to total protein and assayed for Aβ 40 and Aβ 42 by sandwich ELISA according to the manufacturer's instructions (Biosource International). For Aβ 42 detection, samples were concentrated on YM3 Microcon columns (Millipore). […] Right cortices were homogenized for 3 h at room temperature in 5M Guanidine-Hcl, 50 mM Tris-Hcl, pH8 with a protease inhibitor mixture (Roche Diagnostics). Tissue homogenates were diluted 1:1 (v/v) in BSAT-DPBS buffer (Dulbecco's phosphate buffered saline with 5% BSA and 0.03% Tween-20), pH 7.4, and were centrifuged at 20,000 g for 20 min at 4° C. Supernatants were diluted 1:1 (v/v) in ELISA kit sample buffer, normalized to total protein and assayed for Aβ 40 and Aβ 42 by sandwich ELISA according to the manufacturer's instructions. For Aβ 42 detection, samples were concentrated on YM3 Microcon columns (Millipore).

[6] = test system: intracellular Aβ 40 and Aβ 42 in swAPP-HEK293 cells; assay: Intracellular (cell-associated) Aβ 40 and Aβ 42 ELISA, swAPP-HEK293 cells; assay type: cell-based, human; details: swAPP-HEK293 cell lysates, normalized to cellular protein; qualitative
[7] = test system: Rac1-dependent cytoskeleton rearrangements; details: Picard et al., submitted; cited from earlier work
[8] = Acute toxicity and tolerability in rat; details: in vivo

Sequence of Cdc42 (P60953 whole entry, species assumed): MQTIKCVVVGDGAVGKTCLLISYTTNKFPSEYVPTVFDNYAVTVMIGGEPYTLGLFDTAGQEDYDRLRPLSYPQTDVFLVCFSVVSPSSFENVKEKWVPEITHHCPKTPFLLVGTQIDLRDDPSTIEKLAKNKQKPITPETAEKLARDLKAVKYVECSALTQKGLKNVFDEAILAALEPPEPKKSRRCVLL
Sequence of RhoA (P61586 whole entry, species assumed): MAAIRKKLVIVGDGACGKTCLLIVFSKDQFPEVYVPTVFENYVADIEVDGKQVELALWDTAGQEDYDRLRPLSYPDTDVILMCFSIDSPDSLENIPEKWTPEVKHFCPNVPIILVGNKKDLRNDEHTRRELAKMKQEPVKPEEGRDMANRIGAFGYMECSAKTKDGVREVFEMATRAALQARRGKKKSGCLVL

Cl.Cl.O=c1cc(CN2CCOCC2)occ1OCCCCCSc1ccnc2cc(C(F)(F)F)ccc12 [compound 38, 5-(5-(7-(Trifluoromethyl)quinolin-4-ylthio)pentyloxy)-2-(morpholinomethyl)-4H-pyran-4-one dihydrochloride]
Notch cleavage (NICD by Western blot) [1]: did not affect Notch cleavage
de novo Aβ production from C99 (γ-secretase activity) (γ-secretase [2]): dose-dependent reduction
activity on / interaction with RhoA (RhoA): selective over cdc42 and RhoA
activity on / interaction with Cdc42 (Cdc42): selective over cdc42 and RhoA
Kd (Recombinant Rac2): 60 nM
de novo Aβ 40 generation from membrane preparations (γ-secretase [3]; added to solubilized γ-secretase from untreated cells, 50 μM): did not change
de novo Aβ 40 generation from membrane preparations (γ-secretase [3]; concentrations as high as 4 mM): lack of effect
cleavage of fluorogenic γ-secretase substrate (γ-secretase [3]; direct addition): not a direct competitive inhibitor of γ-secretase
decrease in Aβ 42 levels (brain Aβ 40 and Aβ 42; guinea pig, 40 mg/kg per day i.p., 15 days, just below significance): 23.6%
lowering of brain Aβ 40 (brain Aβ 40 and Aβ 42; guinea pig, 40 mg/kg per day i.p., 15 days, p<0.05 Wilcoxon): 37%
reduction in Aβ levels in vivo (brain Aβ 40 and Aβ 42; summary statement): ~30%
C83 and C99 levels (brain Aβ 40 and Aβ 42; treated guinea pigs): No significant changes
full-length APP levels (brain Aβ 40 and Aβ 42; treated guinea pigs): no change
tolerability [4]: good tolerability
reduction in secreted Aβ 40 levels ([5]; 2 μM): 12.9%
reduction in secreted Aβ 40 levels ([5]; 10 μM): 30.1%
reduction in secreted Aβ 40 levels ([5]; 20 μM): 79.8%
IC50 ([5]; Homo sapiens, read-out: IC50, secreted Aβ 40): 5440 nM
Aβ 40 and Aβ 42 intracellular levels [6]: dose-dependent decrease
Rac1-dependent cytoskeleton rearrangements [7]: prevents
genotoxicity (Ames test) (Ames test): no genotoxicity
LD50 ([8]; iv): 50 mg/kg
LD50 ([8]; po): > 1000 mg/kg
